Test results taken from ChEMBL document CHEMBL5505995, “Discovery of novel urea derivatives as ferroptosis and autophagy inducer for human colon cancer treatment” (Eur J Med Chem, 2024).
Calls of active or inactive are those of the source. The rule behind the calls is not given here.

What was measured:
Assay type in all cases: functional, cell-based
HT-29 [1] = experiment: Antiproliferative activity against human HT-29 cells assessed as inhibition of cell growth incubated for 48 hrs by MTT assay; details: HT-29, 48 h
MCF7 = experiment: Antiproliferative activity against human MCF7 cells assessed as inhibition of cell growth incubated for 48 hrs by MTT assay; details: MCF7, 48 h
HeLa = experiment: Antiproliferative activity against human HeLa cells assessed as inhibition of cell growth incubated for 48 hrs by MTT assay
HepG2 = experiment: Antiproliferative activity against human HepG2 cells assessed as inhibition of cell growth incubated for 48 hrs by MTT assay; details: HepG2, 48 h
HT-29 [2] = experiment: Antiproliferative activity against human HT-29 cells assessed as inhibition of cell growth at 1 to 10 uM incubated for 48 hrs by MTT assay; details: dose 1-10 µM
K562 = experiment: Antiproliferative activity against human K562 cells assessed as inhibition of cell growth incubated for 48 hrs by MTT assay; details: K562, 48 h

**Q.** How did the IC50 (HT-29 [1]) turn out when `CCOc1ccccc1-n1c(C(C)N2CCN(C(=O)COc3ccc(Cl)cc3)CC2)nc2ccccc2c1=O` (stereo not drawn) [ERASTIN] was run?
**A.** 20.9 µM

**Q.** For `CNC(=O)c1cc(Oc2ccc(NC(=O)Nc3ccc(Cl)c(C(F)(F)F)c3)cc2)ccn1` [SORAFENIB], which IC50 (MCF7) is on record?
**A.** 9.81 µM

**Q.** And the IC50 (HeLa)?
**A.** 10.3 µM

**Q.** What about the IC50 (HepG2) of the same compound?
**A.** 11.2 µM

**Q.** What about the IC50 (HT-29 [1]) of the same compound?
**A.** 3.56 µM

**Q.** With `O=C(Nc1ccc(OC(F)(F)F)cc1)N1CCNc2ccccc21` as the compound, how does the Activity (HT-29 [2]) read?
**A.** Active

**Q.** Which Activity (HT-29 [2]) does the source give for `O=C(Nc1cccc2ccccc12)N1CCNc2ccccc21` here?
**A.** Active

**Q.** For `COc1ccccc1NC(=O)N1CCNc2ncccc21`, which Activity (HT-29 [2]) is on record?
**A.** inactive

**Q.** What does the source list for `COc1ccc2c(c1)NCCN2C(=O)NC(C)(C)C`?
**A.** IC50 (K562): 28.3 µM; Activity (HT-29 [2]): Active; IC50 (MCF7): 36.4 µM; IC50 (HeLa): 25.4 µM; IC50 (HepG2): 15.7 µM; IC50 (HT-29 [1]): 28.4 µM

**Q.** How did the Activity (HT-29 [2]) turn out when `COc1ccc2c(c1)NCCN2C(=O)Nc1ccc(C)cc1` was run?
**A.** Active

**Q.** For `COc1ccc2c(c1)NCCN2C(=O)NC1CCCCC1`, which Activity (HT-29 [2]) is on record?
**A.** Active

**Q.** For `CCNC(=O)N1CCNc2cc(OC)ccc21`, which Activity (HT-29 [2]) is on record?
**A.** Active

**Q.** `Cc1ccc(NC(=O)N2CCNc3ccccc32)cc1` was tested. Which Activity (HT-29 [2]) did it give?
**A.** Active

**Q.** For `COc1ccc2c(c1)NCCN2C(=O)Nc1ccc(Cl)cc1`, which Activity (HT-29 [2]) is on record?
**A.** Active

**Q.** Which IC50 (K562) does the source give for `COc1ccc2c(c1)NCCN2C(=O)Nc1ccccc1C(F)(F)F` here?
**A.** 34.4 µM

**Q.** What about the Activity (HT-29 [2]) of the same compound?
**A.** Active

**Q.** What about the IC50 (MCF7) of the same compound?
**A.** 48 µM

**Q.** What about the IC50 (HeLa) of the same compound?
**A.** 16.6 µM

**Q.** What about the IC50 (HepG2) of the same compound?
**A.** 40.4 µM

**Q.** What about the IC50 (HT-29 [1]) of the same compound?
**A.** 28.6 µM

**Q.** `COc1ccc2c(c1)NCCN2C(=O)Nc1ccccc1OC` was tested. Which IC50 (K562) did it give?
**A.** 49.1 µM

**Q.** And the Activity (HT-29 [2])?
**A.** Active

**Q.** And the IC50 (MCF7)?
**A.** > 50 µM

**Q.** And the IC50 (HeLa)?
**A.** 11.7 µM

**Q.** And the IC50 (HepG2)?
**A.** 43.5 µM

**Q.** And the IC50 (HT-29 [1])?
**A.** 19.1 µM

**Q.** Which IC50 (HT-29 [1]) does the source give for `COC(=O)c1ccc([C@H]2c3[nH]c4ccccc4c3C[C@H](C(=O)OC)N2C(=O)CCl)cc1` here?
**A.** 3.25 µM

**Q.** For `COc1ccc2c(c1)NCCN2C(=O)Nc1c(C)cccc1C`, which Activity (HT-29 [2]) is on record?
**A.** Active

**Q.** `COC(=O)c1ccc2c(c1)NCCN2C(=O)Nc1ccc(OC)cc1` was tested. Which Activity (HT-29 [2]) did it give?
**A.** inactive

**Q.** With `COc1ccc2c(c1)NCCN2C(=O)Nc1ccc(N)cc1` as the compound, how does the Activity (HT-29 [2]) read?
**A.** Active

**Q.** Which Activity (HT-29 [2]) does the source give for `Cc1ccc(NC(=O)N2CCNc3ncccc32)cc1` here?
**A.** inactive

**Q.** With `COc1ccc2c(c1)NCCN2C(=O)Nc1cccc2ccccc12` as the compound, how does the Activity (HT-29 [2]) read?
**A.** inactive

**Q.** With `COC(=O)c1ccc2c(c1)NCCN2C(=O)Nc1ccc(C)cc1` as the compound, how does the Activity (HT-29 [2]) read?
**A.** inactive

**Q.** `O=C(NCCCl)N1CCNc2ncccc21` was tested. Which Activity (HT-29 [2]) did it give?
**A.** inactive

**Q.** Which Activity (HT-29 [2]) does the source give for `COc1ccc2c(c1)NCCN2C(=O)NCCCCl` here?
**A.** Active

**Q.** `COc1ccc2c(c1)NCCN2C(=O)Nc1ccccc1C` was tested. Which IC50 (K562) did it give?
**A.** 19.4 µM

**Q.** And the Activity (HT-29 [2])?
**A.** Active

**Q.** What about the IC50 (MCF7) of the same compound?
**A.** > 50 µM

**Q.** And the IC50 (HeLa)?
**A.** 22.7 µM

**Q.** And the IC50 (HepG2)?
**A.** 17.6 µM

**Q.** What about the IC50 (HT-29 [1]) of the same compound?
**A.** 26.6 µM

**Q.** `COc1ccc2c(c1)NCCN2C(=O)Nc1ccc(OC(F)(F)F)cc1` was tested. Which Activity (HT-29 [2]) did it give?
**A.** Active

**Q.** `COc1cccc(NC(=O)N2CCNc3cc(OC)ccc32)c1` was tested. Which Activity (HT-29 [2]) did it give?
**A.** Active

**Q.** With `COc1ccc2c(c1)NCCN2C(=O)Nc1ccc(Cl)c(C(F)(F)F)c1` as the compound, how does the Activity (HT-29 [2]) read?
**A.** Active

**Q.** With `CC(C)NC(=O)N1CCNc2ccccc21` as the compound, how does the Activity (HT-29 [2]) read?
**A.** Active

**Q.** For `COc1ccc(NC(=O)N2CCNc3ccccc32)cc1`, which Activity (HT-29 [2]) is on record?
**A.** Active

**Q.** For `COc1ccc(NC(=O)N2CCNc3cc(OC)ccc32)cc1`, which Activity (HT-29 [2]) is on record?
**A.** Active

**Q.** For `COc1ccc(OC)c(NC(=O)N2CCNc3cc(OC)ccc32)c1`, which IC50 (K562) is on record?
**A.** 4.57 µM

**Q.** And the Activity (HT-29 [2])?
**A.** Active

**Q.** What about the IC50 (MCF7) of the same compound?
**A.** 40.3 µM

**Q.** And the IC50 (HeLa)?
**A.** 6.52 µM

**Q.** What about the IC50 (HepG2) of the same compound?
**A.** 20.5 µM

**Q.** What about the IC50 (HT-29 [1]) of the same compound?
**A.** 14.9 µM
